In patent US20080058213A1, “Benzoxazole Compounds” (priority 2004, published 2008):

What was measured:
Assay type in all cases: in vivo
[1] = system: common purslane (Portulaca oleracea); assay: Soil treatment test for upland field (Test Example 2): common purslane; details: soil treatment before germination, examined after 3 weeks
Excerpt: (§1) Evaluation of the herbicidal effect is shown in the following six grades, by comparing the condition of untreated control and growth inhibition (%): • 0: 0%-less than 20% • 1: 20%-less than 40% • 2: 40%-less than 60% • 3: 60%-less than 80% • 4: 80%-less than 100% • 5: 100%.
(§2) Upland field soil was filled in 1/3,000 are pots, seeded with southern crabgrass (Digitaria ciliaris), common lambsquaters (Chenopodium album), slender amaranth (Amaranthus viridis), common purslane (Portulaca oleracea), velvetleaf (Abutilon theophrasti), wheat, corn and soybean. The seeds were covered up with the soil.
(§3) Wettable powders containing the object compounds (1) as identified in Table 1, which were formulated following Preparation Example 2, were diluted with adequate amount of water to secure the prescribed dose of the active ingredient, and uniformly sprayed onto the surface soil layer after the seeding and before germination of the weeds, at an application water of 15 liters per are.
(§4) After placing the test pots in a glasshouse which was kept at an average temperature of 25° C. for 3 weeks, the herbicidal effect was examined.
(§5) Evaluations of the herbicidal effect and phytotoxicity were made in the manner similar to those in the above Test Example 1.

[2] = system: corn; assay: Soil treatment test for upland field (Test Example 2): phytotoxicity to corn; details: soil treatment before germination, examined after 3 weeks
Excerpt: (§6) Evaluation of phytotoxicity is shown in the following six grades, as compared with the condition of untreated control: • 0: normal growth • 1: little damaged • 2: low damaged • 3: medium damaged • 4: serious damaged • 5: complete killed.
as §2, §4

[3] = system: flat sedge (Cyperus serotinus); assay: Weed control test for paddy field (Test Example 1): flat sedge; details: paddy pots, treated at 1.0 leaf stage of barnyard grass, examined after 3 weeks
Excerpt: (§7) Paddy field soil was filled in 1/10,000 are pots, kneaded with adequate amounts of water and chemical fertilizer, seeded with barnyard grass (Echinochloa crusgalli), Monochoria (Monochoria vaginalis), Japanese bulrush (Scirpus juncoides) and flat sedge (Cyperus serotinus), and further transplanted with 2.0 leaf stage of rice plant. The pots were maintained under the water-filled condition to a depth of 3 cm.
(§8) Wettable powders containing the compounds (1) as identified in Table 1, which were formulated following Production Example 2, were diluted with adequate amount of water and applied to the pots dropwise with pippet at a prescribed dose of the active ingredients per are, at 1.0 leaf stage of the barnyard grass.
(§9) After placing the pots in a glasshouse which was controlled at an average temperature of 25° C. for 3 weeks, herbicidal effect was examined.
as §1

[4] = system: wheat; assay: Soil treatment test for upland field (Test Example 2): phytotoxicity to wheat; details: soil treatment before germination, examined after 3 weeks
Excerpt: as §6, §2, §4

[5] = system: corn; assay: Foliage treatment test for upland field (Test Example 3): phytotoxicity to corn; details: foliage treatment at 1.0-2.0 leaf stage of southern crabgrass, examined after 3 weeks
Protocol: as §6
(§10) Compost mixed soil was filled in 1/3,000 are pots, seeded with southern crabgrass, common lambsquaters, slender amaranth, common purslane, velvetleaf, wheat, corn and soybean. The seeds were covered up with the soil and cultured in a glasshouse kept at 25° C. on the average.
(§11) After placing the test pots in a grasshouse kept at 25° C. on the average for 3 weeks, the herbicidal effect was examined.

[6] = system: Monochoria (Monochoria vaginalis); assay: Weed control test for paddy field (Test Example 1): Monochoria; details: paddy pots, treated at 1.0 leaf stage of barnyard grass, examined after 3 weeks
Excerpt: as §7, §8, §9, §1

[7] = system: slender amaranth; assay: Foliage treatment test for upland field (Test Example 3): slender amaranth; details: foliage treatment at 1.0-2.0 leaf stage of southern crabgrass, examined after 3 weeks
Excerpt: as §1, §10
(§12) Wettable powders containing the object compounds (1) as identified in Table 1, which were formulated following Preparation Example 2, were diluted with water to the prescribed dose of the active ingredient, and uniformly sprayed onto the weeds at 1.0-2.0 leaf stage of the southern crabgrass at an application water of 15 liters per are.
as §11
(§13) Evaluation of the herbicidal effect was conducted in the similar manner to Test Example 1.

[8] = system: velvetleaf; assay: Foliage treatment test for upland field (Test Example 3): velvetleaf; details: foliage treatment at 1.0-2.0 leaf stage of southern crabgrass, examined after 3 weeks
Excerpt: as §1, §10, §12, §11, §13

[9] = system: southern crabgrass (Digitaria ciliaris); assay: Soil treatment test for upland field (Test Example 2): southern crabgrass; details: soil treatment before germination, examined after 3 weeks
Excerpt: as §1, §2, §3, §4, §5

[10] = system: soybean; assay: Soil treatment test for upland field (Test Example 2): phytotoxicity to soybean; details: soil treatment before germination, examined after 3 weeks
Excerpt: as §6, §2, §4

[11] = system: common lambsquaters (Chenopodium album); assay: Soil treatment test for upland field (Test Example 2): common lambsquaters; details: soil treatment before germination, examined after 3 weeks
Excerpt: as §1, §2, §3, §4, §5

[12] = system: velvetleaf (Abutilon theophrasti); assay: Soil treatment test for upland field (Test Example 2): velvetleaf; details: soil treatment before germination, examined after 3 weeks
Excerpt: as §1, §2, §3, §4, §5

[13] = system: wheat; assay: Foliage treatment test for upland field (Test Example 3): phytotoxicity to wheat; details: foliage treatment at 1.0-2.0 leaf stage of southern crabgrass, examined after 3 weeks
Protocol: as §6, §10, §11

[14] = system: rice plant; assay: Weed control test for paddy field (Test Example 1): phytotoxicity to rice plant
Excerpt: as §7, §8, §9, §6

[15] = system: common lambsquaters; assay: Foliage treatment test for upland field (Test Example 3): common lambsquaters; details: foliage treatment at 1.0-2.0 leaf stage of southern crabgrass, examined after 3 weeks
Excerpt: as §1, §10, §12, §11, §13

[16] = system: soybean; assay: Foliage treatment test for upland field (Test Example 3): phytotoxicity to soybean; details: foliage treatment at 1.0-2.0 leaf stage of southern crabgrass, examined after 3 weeks
Protocol: as §6, §10, §11

[17] = system: Japanese bulrush (Scirpus juncoides); assay: Weed control test for paddy field (Test Example 1): Japanese bulrush; details: paddy pots, treated at 1.0 leaf stage of barnyard grass, examined after 3 weeks
Excerpt: as §7, §8, §9, §1

[18] = system: barnyard grass (Echinochloa crusgalli); assay: Weed control test for paddy field (Test Example 1): barnyard grass; details: paddy pots, treated at 1.0 leaf stage of barnyard grass, examined after 3 weeks
Excerpt: as §7, §8, §9, §1

[19] = system: southern crabgrass; assay: Foliage treatment test for upland field (Test Example 3): southern crabgrass; details: foliage treatment at 1.0-2.0 leaf stage of southern crabgrass, examined after 3 weeks
Excerpt: as §1, §10, §12, §11, §13

[20] = system: slender amaranth (Amaranthus viridis); assay: Soil treatment test for upland field (Test Example 2): slender amaranth; details: soil treatment before germination, examined after 3 weeks
Excerpt: as §1, §2, §3, §4, §5

[21] = system: common purslane; assay: Foliage treatment test for upland field (Test Example 3): common purslane; details: foliage treatment at 1.0-2.0 leaf stage of southern crabgrass, examined after 3 weeks
Excerpt: as §1, §10, §12, §11, §13

SMILES: COC/C(=C\c1cccc(C(F)(F)F)c1)c1nc2cc(Cl)ccc2o1 [Compound 3]
- Herbicidal Effect common purslane ([1]; dose 2.5 g ai/a): 5 (100%)
- Herbicidal Effect common purslane ([1]; dose 5 g ai/a): 5 (100%)
- Phytotoxicity corn ([2]; dose 2.5 g ai/a): 0
- Phytotoxicity corn ([2]; dose 5 g ai/a): 1
- Herbicidal Effect Flat sedge ([3]; dose 2.5 g ai/a): 3 (60%-less than 80%)
- Herbicidal Effect Flat sedge ([3]; dose 5 g ai/a): 5 (100%)
- Phytotoxicity wheat ([4]; dose 2.5 g ai/a): 0
- Phytotoxicity wheat ([4]; dose 5 g ai/a): 0
- Phytotoxicity corn ([5]; dose 2.5 g ai/a): 1
- Phytotoxicity corn ([5]; dose 5 g ai/a): 1
- Herbicidal Effect Monochoria vaginalis ([6]; dose 2.5 g ai/a): 5 (100%)
- Herbicidal Effect Monochoria vaginalis ([6]; dose 5 g ai/a): 5 (100%)
- Herbicidal Effect slender amaranth ([7]; dose 2.5 g ai/a): 5 (100%)
- Herbicidal Effect slender amaranth ([7]; dose 5 g ai/a): 5 (100%)
- Herbicidal Effect velvetleaf ([8]; dose 2.5 g ai/a): 5 (100%)
- Herbicidal Effect velvetleaf ([8]; dose 5 g ai/a): 5 (100%)
- Herbicidal Effect southern crabgrass ([9]; dose 2.5 g ai/a): 5 (100%)
- Herbicidal Effect southern crabgrass ([9]; dose 5 g ai/a): 5 (100%)
- Phytotoxicity soybean ([10]; dose 2.5 g ai/a): 0
- Phytotoxicity soybean ([10]; dose 5 g ai/a): 0
- Herbicidal Effect common lambsquaters ([11]; dose 2.5 g ai/a): 5 (100%)
- Herbicidal Effect common lambsquaters ([11]; dose 5 g ai/a): 5 (100%)
- Herbicidal Effect velvetleaf ([12]; dose 2.5 g ai/a): 3 (60%-less than 80%)
- Herbicidal Effect velvetleaf ([12]; dose 5 g ai/a): 4 (80%-less than 100%)
- Phytotoxicity wheat ([13]; dose 2.5 g ai/a): 1
- Phytotoxicity wheat ([13]; dose 5 g ai/a): 1
- Phytotoxicity Rice plant ([14]; in vivo): 1
- Herbicidal Effect Common lambsquatters ([15]; dose 2.5 g ai/a): 5 (100%)
- Herbicidal Effect Common lambsquatters ([15]; dose 5 g ai/a): 5 (100%)
- Phytotoxicity soybean ([16]; dose 2.5 g ai/a): 1
- Phytotoxicity soybean ([16]; dose 5 g ai/a): 2
- Herbicidal Effect Japanese bulrush ([17]; dose 2.5 g ai/a): 4 (80%-less than 100%)
- Herbicidal Effect Japanese bulrush ([17]; dose 5 g ai/a): 5 (100%)
- Herbicidal Effect Barnyard grass ([18]; dose 2.5 g ai/a): 5 (100%)
- Herbicidal Effect Barnyard grass ([18]; dose 5 g ai/a): 5 (100%)
- Herbicidal Effect southern crabgrass ([19]; dose 2.5 g ai/a): 5 (100%)
- Herbicidal Effect southern crabgrass ([19]; dose 5 g ai/a): 5 (100%)
- Herbicidal Effect slender amaranth ([20]; dose 2.5 g ai/a): 5 (100%)
- Herbicidal Effect slender amaranth ([20]; dose 5 g ai/a): 5 (100%)
- Herbicidal Effect common purslane ([21]; dose 2.5 g ai/a): 5 (100%)
- Herbicidal Effect common purslane ([21]; dose 5 g ai/a): 5 (100%)

SMILES: CSCC(=Cc1cccc(C(F)(F)F)c1)c1nc2cc(Cl)ccc2o1 [Compound 30]
- Herbicidal Effect common purslane ([1]; dose 2.5 g ai/a): 5 (100%)
- Herbicidal Effect common purslane ([1]; dose 5 g ai/a): 5 (100%)
- Phytotoxicity corn ([2]; dose 2.5 g ai/a): 0
- Phytotoxicity corn ([2]; dose 5 g ai/a): 0
- Herbicidal Effect Flat sedge ([3]; dose 2.5 g ai/a): 3 (60%-less than 80%)
- Herbicidal Effect Flat sedge ([3]; dose 5 g ai/a): 5 (100%)
- Phytotoxicity wheat ([4]; dose 2.5 g ai/a): 0
- Phytotoxicity wheat ([4]; dose 5 g ai/a): 1
- Herbicidal Effect Monochoria vaginalis ([6]; dose 2.5 g ai/a): 5 (100%)
- Herbicidal Effect Monochoria vaginalis ([6]; dose 5 g ai/a): 5 (100%)
- Herbicidal Effect southern crabgrass ([9]; dose 2.5 g ai/a): 3 (60%-less than 80%)
- Herbicidal Effect southern crabgrass ([9]; dose 5 g ai/a): 5 (100%)
- Phytotoxicity soybean ([10]; dose 2.5 g ai/a): 0
- Phytotoxicity soybean ([10]; dose 5 g ai/a): 0
- Herbicidal Effect common lambsquaters ([11]; dose 2.5 g ai/a): 4 (80%-less than 100%)
- Herbicidal Effect common lambsquaters ([11]; dose 5 g ai/a): 4 (80%-less than 100%)
- Herbicidal Effect velvetleaf ([12]; dose 2.5 g ai/a): 2 (40%-less than 60%)
- Herbicidal Effect velvetleaf ([12]; dose 5 g ai/a): 2 (40%-less than 60%)
- Phytotoxicity Rice plant ([14]; dose 2.5 g ai/a, paddy pots, treated at 1.0 leaf stage of barnyard grass, examined after 3 weeks): 0
- Phytotoxicity Rice plant ([14]; dose 5 g ai/a, paddy pots, treated at 1.0 leaf stage of barnyard grass, examined after 3 weeks): 0
- Herbicidal Effect Japanese bulrush ([17]; dose 2.5 g ai/a): 4 (80%-less than 100%)
- Herbicidal Effect Japanese bulrush ([17]; dose 5 g ai/a): 5 (100%)
- Herbicidal Effect Barnyard grass ([18]; dose 2.5 g ai/a): 4 (80%-less than 100%)
- Herbicidal Effect Barnyard grass ([18]; dose 5 g ai/a): 5 (100%)
- Herbicidal Effect slender amaranth ([20]; dose 2.5 g ai/a): 5 (100%)
- Herbicidal Effect slender amaranth ([20]; dose 5 g ai/a): 5 (100%)
